Laboratory results published in PubChem BioAssay AID1918956 (Molecular Pharmacology Branch, DTP, NCI, 2023).

System: OVCAR-5 complex spheroids, viability
Assay: Anticancer human tumor OVCAR-5 cell line growth inhibition;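 further: spheroids exposed to agents for seven days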;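 on viability, T/C: 100% = DMSO vehicle control wells viability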
Settings: for IC50: curve of first compound; for viability, T/C: stronger effect = lower value; active means viability on the fitted dose curve at most 10% of control; inactive means the rest
Method in brief: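 Drug combinations with the LSD1 inhibitor iadademstat tested on tumor cells co-cultured as spheroids with endothelial cells and mesenchymal stem cells. Concentrations descended in half-log increments from clinical Cmax or 10 microM.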

Nc1ccn(C2OC(CO)C(O)C2(F)F)c(=O)n1 (stereo not given) + NC1CC1c1ccc(-c2cccc(O)c2)cc1
< 0.949 nM: IC50 (second compound 0.1 µM) | IC50 (second compound 0.316 µM) | IC50 (second compound 1 µM) | IC50 (second compound 3.16 µM) | IC50 (second compound 10 µM)
inactive: viability, T/C (second compound 0.1 µM, first compound 0.000949 µM) 25.5% | viability, T/C (second compound 0.1 µM, first compound 0.003 µM) 27.5% | viability, T/C (second compound 0.1 µM, first compound 0.00949 µM) 26.3% | viability, T/C (second compound 0.1 µM, first compound 0.03 µM) 27.9% | viability, T/C (second compound 0.1 µM, first compound 0.0949 µM) 24.9% | viability, T/C (second compound 0.1 µM, first compound 0.3 µM) 26.1% | viability, T/C (second compound 0.316 µM, first compound 0.000949 µM) 26.9% | viability, T/C (second compound 0.316 µM, first compound 0.003 µM) 26.6% | viability, T/C (second compound 0.316 µM, first compound 0.00949 µM) 28% | viability, T/C (second compound 0.316 µM, first compound 0.03 µM) 27.6% | viability, T/C (second compound 0.316 µM, first compound 0.0949 µM) 27.1% | viability, T/C (second compound 0.316 µM, first compound 0.3 µM) 28.5% | viability, T/C (second compound 1 µM, first compound 0.000949 µM) 27.1% | viability, T/C (second compound 1 µM, first compound 0.003 µM) 25% | viability, T/C (second compound 1 µM, first compound 0.00949 µM) 24.1% | viability, T/C (second compound 1 µM, first compound 0.03 µM) 27.9% | viability, T/C (second compound 1 µM, first compound 0.0949 µM) 24.8% | viability, T/C (second compound 1 µM, first compound 0.3 µM) 25.4% | viability, T/C (second compound 3.16 µM, first compound 0.000949 µM) 27.5% | viability, T/C (second compound 3.16 µM, first compound 0.003 µM) 28.6% | viability, T/C (second compound 3.16 µM, first compound 0.00949 µM) 27.1% | viability, T/C (second compound 3.16 µM, first compound 0.03 µM) 27.9% | viability, T/C (second compound 3.16 µM, first compound 0.0949 µM) 29.5% | viability, T/C (second compound 3.16 µM, first compound 0.3 µM) 25.9% | viability, T/C (second compound 10 µM, first compound 0.000949 µM) 29% | viability, T/C (second compound 10 µM, first compound 0.003 µM) 29.1% | viability, T/C (second compound 10 µM, first compound 0.00949 µM) 28.6% | viability, T/C (second compound 10 µM, first compound 0.03 µM) 26.9% | viability, T/C (second compound 10 µM, first compound 0.0949 µM) 28.9% | viability, T/C (second compound 10 µM, first compound 0.3 µM) 28.4%

COc1ccc([C@@H](O)c2cc(-c3ncnc4cc(N5CCOCC5)ccc34)c(F)cc2Cl)nn1 + NC1CC1c1ccc(-c2cccc(O)c2)cc1
396 nM: IC50 (second compound 3.16 µM)
300 nM: IC50 (second compound 10 µM)
inactive: viability, T/C (second compound 0.1 µM, first compound 0.0316 µM) 80.8% | viability, T/C (second compound 0.1 µM, first compound 0.1 µM) 72.6% | viability, T/C (second compound 0.1 µM, first compound 0.316 µM) 55.3% | viability, T/C (second compound 0.1 µM, first compound 1 µM) 46.4% | viability, T/C (second compound 0.1 µM, first compound 3.16 µM) 29.5% | viability, T/C (second compound 0.1 µM, first compound 10 µM) 16.4% | viability, T/C (second compound 0.316 µM, first compound 0.0316 µM) 92.3% | viability, T/C (second compound 0.316 µM, first compound 0.1 µM) 79.1% | viability, T/C (second compound 0.316 µM, first compound 0.316 µM) 61.4% | viability, T/C (second compound 0.316 µM, first compound 1 µM) 45.3% | viability, T/C (second compound 0.316 µM, first compound 3.16 µM) 31.8% | viability, T/C (second compound 0.316 µM, first compound 10 µM) 18.1% | viability, T/C (second compound 1 µM, first compound 0.0316 µM) 86.3% | viability, T/C (second compound 1 µM, first compound 0.1 µM) 73.4% | viability, T/C (second compound 1 µM, first compound 0.316 µM) 57.1% | viability, T/C (second compound 1 µM, first compound 1 µM) 31.7% | viability, T/C (second compound 1 µM, first compound 3.16 µM) 25.8% | viability, T/C (second compound 1 µM, first compound 10 µM) 16.7% | viability, T/C (second compound 3.16 µM, first compound 0.0316 µM) 84% | viability, T/C (second compound 3.16 µM, first compound 0.1 µM) 68% | viability, T/C (second compound 3.16 µM, first compound 0.316 µM) 49.9% | viability, T/C (second compound 3.16 µM, first compound 1 µM) 38.8% | viability, T/C (second compound 3.16 µM, first compound 3.16 µM) 31.6% | viability, T/C (second compound 3.16 µM, first compound 10 µM) 15.9% | viability, T/C (second compound 10 µM, first compound 0.0316 µM) 79.1% | viability, T/C (second compound 10 µM, first compound 0.1 µM) 65.3% | viability, T/C (second compound 10 µM, first compound 0.316 µM) 46.7% | viability, T/C (second compound 10 µM, first compound 1 µM) 36.6% | viability, T/C (second compound 10 µM, first compound 3.16 µM) 29.6% | viability, T/C (second compound 10 µM, first compound 10 µM) 16.6%
419 nM: IC50 (second compound 1 µM)
740 nM: IC50 (second compound 0.316 µM)
625 nM: IC50 (second compound 0.1 µM)
